“And” between values parts separate entries of the source, which are not always exact repeats. Identical values can stand only once.
Tested on: 873145-292-R-J1-PDC complex spheroid viability
Assay: Anticancer human tumor 873145-292-R-J1-PDC patient-derived renal clear cell carcinoma cell line growth inhibition [POLQ]
Details: for viability, T/C: stronger effect = lower value
Protocol: Multicellular complex tumor spheroid response to Polymerase (POL) inhibitors (novobiocin, ART-558, RP6685) in combination with a variety of drugs and investigational agents in selected tumor cell lines
The POL inhibitors (novobiocin, ART-558, and RP6685) were evaluated both individually and in combination with standard of care and investigational anticancer small molecules within a complex spheroid model of solid tumors. . Complex spheroids include a stromal component modeled by human endothelial cells (HUVEC) and fibroblasts modeled by human mesenchymal stem cells (MSCs). The concentration ranges selected for each drug and investigational agent were based upon clinically achievable concentrations if the clinical Cmax of the agent was known.
Compounds. The drugs and investigational agents: novobiocin (NSC847541), ART-558 (NSC835418), RP-6685 (NSC848927), peposertib (NSC802822), ceralasertib (NSC780249), elimusertib (NSC800525), camonsertib (NSC841442), AZD-1390 (NSC803789), olaparib (NSC753686), talazoparib (NSC767125), rucaparib (NSC756644), sotorasib (NSC818433), MRTX-1133 (NSC836407), SN-38 (NSC673596), topotecan (NSC609699), epotoside (NSC141540), doxorubicin (NSC123127), gemcitabine (NSC613327), 5-fluorouracil (NSC19893), paclitaxel (NSC125973), vemurafenib (NSC761431), MSA-2 (NSC828583), SN-011 (NSC837082), adavosertib (NSC754352), prexasertib (NSC758257), carboplatin (NSC241240) and oxaliplatin (NSC266046), were obtained from the National Cancer Institute (NCI) Developmental Therapeutics Program Chemical Repository (21). The FDA-approved anticancer drug set is available from the Developmental Therapeutics Program at https://dtp.cancer.gov/organization/dscb/obtaining/. […] The stock solutions were prepared in dimethyl sulfoxide (DMSO, Sigma-Aldrich, St. Louis, MO, cat. D2650), except for the platinum compounds which were prepared in saline (Quality Biological, Gaithersburg, MD, cat. 114-055-101), at 800-fold the tested concentration and stored at -70 degrees C prior to their use. All drugs and investigational agents were tested over a range starting from a high concentration at or near the clinical Cmax and decreasing in half-log increments. If the clinical Cmax for an agent had not been determined, the highest concentration tested was 10 microM, except for SN-38, which was tested at a high concentration of 1 microM.
Cell Culture. All cells were maintained in an incubator at 37 degrees C and 5% CO2 with 95% humidity. The PDC lines were cultured according to standard operating procedures established by the NCI PDMR (https://pdmr.cancer.gov). Table 3 of the manuscript, lists the cell lines along with the number of the three cell types plated to form the mct-spheroids and media for tumor cell growth. After thawing, all PDC lines, except 997537-175-T-J1-PDC and 415267-285-R-J2-PDC, were cultured in Matrigel-coated flasks prepared with a working solution of 1X Ham's F-12 nutrient mix, without supplementation (Thermo Fisher Scientific, cat. 11765054), 100 U/mL penicillin-streptomycin (Thermo Fisher Scientific, cat. 15140122), and 2.5% Matrigel (Corning Inc., Corning, NY, cat. 354248) for the first three passages. The two PDC lines 997537-175-T-J1-PDC and 415267-285-R-J2-PDC were cultured on uncoated flasks. The 857933-349-R-J2-PDC line was cultured in 6C/Colon 1B media containing advanced DMEM/F-12 (Thermo Fisher Scientific, cat. 12634028), 10 mM HEPES (Thermo Fisher Scientific, cat. 15630080), 1X GlutaMAX supplement (Thermo Fisher Scientific, cat. 35050061), 0.1 mg/mL primocin (InvivoGen, San Diego, CA, cat. ant-pm-2), 10% defined fetal bovine serum, heat inactivated (HyClone Laboratories Inc., Logan, UT, cat. SH30070.03HI), 50% L-WRN conditioned media (ATCC, cat. CRL-3276), 1.25 mM N-Acetyl-L-cysteine (Sigma-Aldrich, cat. A9165), 10 mM nicotinamide (Sigma-Aldrich, cat. N0636), 1X B-27 supplement (Thermo Fisher Scientific, cat. 17504044), 1X N-2 supplement (Thermo Fisher Scientific, cat. […]
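Further: spheroids exposed to compounds for 7 days before viability readout.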
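Wherever viability, T/C is given: luminescence signal used as surrogate for viable cell content; 100% = DMSO vehicle control viability.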

Cc1cccc(N(C)C(=O)C2C(O)CCN2c2nc(C)cc(C(F)(F)F)c2C#N)c1 (stereo not drawn)
viability, T/C (compound 0.0316 µM): 93.4% [middle of 13 runs] | viability, T/C (compound 0.1 µM): 97.4% [middle of 13 runs] | viability, T/C (compound 0.316 µM): 98.9% [middle of 13 runs] | viability, T/C (compound 1 µM): 99.9% [middle of 13 runs] | viability, T/C (compound 3.16 µM): 99.1% [middle of 13 runs] | viability, T/C (compound 10 µM): 95.5% [middle of 11 runs] | IC50 (compound alone, run of 01/08/2024): > 10 µM | IC50 (compound alone, run of 01/19/2024): > 10 µM

C#Cc1c(F)ccc2cc(O)cc(-c3ncc4c(N5CC6CCC(C5)N6)nc(OCC56CCCN5CC(F)C6)nc4c3F)c12 (stereo not drawn)
viability, T/C (compound 0.0316 µM): 99.2% and 106% and 107% | viability, T/C (compound 0.1 µM): 104% and 107% and 91.8% | viability, T/C (compound 0.316 µM): 90.8% and 96.4% and 88.5% | viability, T/C (compound 1 µM): 89% and 91.7% and 89.9% | viability, T/C (compound 3.16 µM): 91.4% and 107% and 86% | viability, T/C (compound 10 µM): 85% and 95.8% and 82.9% | IC50 (curve of compound): > 10 µM

COc1ccc([C@@H](O)c2cc(-c3ncnc4cc(N5CCOCC5)ccc34)c(F)cc2Cl)nn1 + COC1C(OC(N)=O)C(O)C(Oc2ccc3c(O)c(NC(=O)c4ccc(O)c(CC=C(C)C)c4)c(=O)oc3c2C)OC1(C)C
IC50 (curve of first compound, second compound 0.0316 µM): 4.41 µM | IC50 (curve of first compound, second compound 0.1 µM): 4.1 µM | IC50 (curve of first compound, second compound 0.316 µM): 3.22 µM | IC50 (curve of first compound, second compound 1 µM): 3.96 µM | IC50 (curve of first compound, second compound 3.16 µM): 6.14 µM | IC50 (curve of first compound, second compound 10 µM): 5.25 µM | viability, T/C (second compound 0.0316 µM, first compound 0.0316 µM): 92% | viability, T/C (second compound 0.0316 µM, first compound 0.1 µM): 97.4% | viability, T/C (second compound 0.0316 µM, first compound 0.316 µM): 81.2% | viability, T/C (second compound 0.0316 µM, first compound 1 µM): 69.8% | viability, T/C (second compound 0.0316 µM, first compound 3.16 µM): 50.3% | viability, T/C (second compound 0.0316 µM, first compound 10 µM): 46.1% | viability, T/C (second compound 0.1 µM, first compound 0.0316 µM): 94.3% | viability, T/C (second compound 0.1 µM, first compound 0.1 µM): 87.9% | viability, T/C (second compound 0.1 µM, first compound 0.316 µM): 83.1% | viability, T/C (second compound 0.1 µM, first compound 1 µM): 71.3% | viability, T/C (second compound 0.1 µM, first compound 3.16 µM): 51.7% | viability, T/C (second compound 0.1 µM, first compound 10 µM): 40.3% | viability, T/C (second compound 0.316 µM, first compound 0.0316 µM): 108% | viability, T/C (second compound 0.316 µM, first compound 0.1 µM): 93% | viability, T/C (second compound 0.316 µM, first compound 0.316 µM): 76.1% | viability, T/C (second compound 0.316 µM, first compound 1 µM): 64.9% | viability, T/C (second compound 0.316 µM, first compound 3.16 µM): 51.3% | viability, T/C (second compound 0.316 µM, first compound 10 µM): 36.6% | viability, T/C (second compound 1 µM, first compound 0.0316 µM): 92.4% | viability, T/C (second compound 1 µM, first compound 0.1 µM): 85.5% | viability, T/C (second compound 1 µM, first compound 0.316 µM): 83.5% | viability, T/C (second compound 1 µM, first compound 1 µM): 68.1% | viability, T/C (second compound 1 µM, first compound 3.16 µM): 52.5% | viability, T/C (second compound 1 µM, first compound 10 µM): 40.1% | viability, T/C (second compound 3.16 µM, first compound 0.0316 µM): 89.1% | viability, T/C (second compound 3.16 µM, first compound 0.1 µM): 92.4% | viability, T/C (second compound 3.16 µM, first compound 0.316 µM): 85.7% | viability, T/C (second compound 3.16 µM, first compound 1 µM): 65.1% | viability, T/C (second compound 3.16 µM, first compound 3.16 µM): 62.9% | viability, T/C (second compound 3.16 µM, first compound 10 µM): 42.7% | viability, T/C (second compound 10 µM, first compound 0.0316 µM): 99.1% | viability, T/C (second compound 10 µM, first compound 0.1 µM): 90% | viability, T/C (second compound 10 µM, first compound 0.316 µM): 88.7% | viability, T/C (second compound 10 µM, first compound 1 µM): 70.4% | viability, T/C (second compound 10 µM, first compound 3.16 µM): 58.9% | viability, T/C (second compound 10 µM, first compound 10 µM): 39.9%

CC(=O)O[C@H]1C(=O)[C@@]2(C)[C@H]([C@H](OC(=O)c3ccccc3)[C@]3(O)C[C@H](OC(=O)[C@H](O)[C@@H](NC(=O)c4ccccc4)c4ccccc4)C(C)=C1C3(C)C)[C@]1(OC(C)=O)CO[C@@H]1C[C@@H]2O
viability, T/C (compound 0.00949 µM): 79.4% and 83.2% and 84.7% | viability, T/C (compound 0.03 µM): 83.6% and 72.1% and 70.3% | viability, T/C (compound 0.0949 µM): 74% and 72.5% and 60.7% | viability, T/C (compound 0.3 µM): 70.2% and 65.1% and 65.8% | viability, T/C (compound 0.949 µM): 69.9% and 66.2% and 67.9% | viability, T/C (compound 3 µM): 63.5% and 72.9% and 57.8% | IC50 (curve of compound): > 3 µM

COc1cccc2c1C(=O)c1c(O)c3c(c(O)c1C2=O)CC(O)(C(=O)CO)CC3OC1CC(N)C(O)C(C)O1 (stereo not drawn)
viability, T/C (compound 0.0316 µM): 79.5% and 101% and 88.3% | viability, T/C (compound 0.1 µM): 68.8% and 87.2% and 90.1% | viability, T/C (compound 0.316 µM): 70.1% and 92.2% and 85.7% | viability, T/C (compound 1 µM): 68.8% and 84.2% and 79.3% | viability, T/C (compound 3.16 µM): 3.4% and 5.11% and 4.22% | viability, T/C (compound 10 µM): 2.7% and 3.08% and 3.02% | IC50 (curve of compound): 1.39 µM and 1.65 µM and 1.57 µM

CC1COCCN1c1cc(C2(O)CC3CCC(C2)O3)c2cnn(-c3ccn[nH]3)c2n1 (stereo not drawn)
viability, T/C (compound 0.0316 µM): 86.7% and 86.2% and 97.9% | viability, T/C (compound 0.1 µM): 84.8% and 72% and 82.1% | viability, T/C (compound 0.316 µM): 56.8% and 49.1% and 60.9% | viability, T/C (compound 1 µM): 48.6% and 43% and 55.3% | viability, T/C (compound 3.16 µM): 40% and 39.9% and 48.1% | viability, T/C (compound 10 µM): 31.9% and 32.5% and 41% | IC50 (curve of compound): 0.741 µM and 0.385 µM and 1.81 µM
